Results as given in US8420608B2, “Active substance combinations with insecticides and acaricide properties” (Bayer Cropscience AG, priority 2008, dated 2013).

How the values were obtained:
Format in all cases: in vivo
Spodoptera frugiperda = Spodoptera frugiperda larvae test (sprayed cabbage leaves)
Text: (§1) The expected action for a given combination of two active compounds can be calculated as follows, according to S. R. Colby, Weeds 15 (1967), 20-22:
(§2) If • X is the kill rate, expressed as a percentage of the untreated control, when employing active compound A at an application rate of m g/ha or in a concentration of m ppm, • Y is the kill rate, expressed as a percentage of the untreated control, when employing active compound B at an application rate of n g/ha or in a concentration of n ppm and • E is the kill rate, expressed as a percentage of the untreated control, when employing active compounds A and B at application rates of m and n g/ha or in a concentration of m and n ppm, then
(§3) If the actual insecticidal kill rate exceeds the calculated value, the kill of the combination is superadditive, i.e. a synergistic effect is present. In this case, the actually observed kill rate must exceed the value calculated using the above formula for the expected kill rate (E).
(§4) To produce a suitable preparation of active compound, 1 part by weight of active compound is mixed with the stated amounts of solvents and emulsifier, and the concentrate is diluted with emulsifier-containing water to the desired concentration.
Cabbage leaves (Brassica oleracea) are treated by spraying with the active compound preparation of the desired concentration and are populated with larvae of the army worm (Spodoptera frugiperda) while the leaves are still moist.
After the desired period of time, the kill in % is determined. 100% means that all caterpillars have been killed; 0% means that none of the caterpillars have been killed. The kill rates determined are entered into Colby's formula.

Myzus persicae = Myzus persicae test (spray on infested cabbage leaves)
Text: as §1, §2, §3, §4
Cabbage leaves (Brassica oleracea) which are heavily infested by the green peach aphid (Myzus persicae) are treated by spraying with the active compound preparation of the desired concentration.
After the desired period of time, the kill in % is determined. 100% means that all aphids have been killed; 0% means that none of the aphids have been killed. The kill rates determined are entered into Colby's formula.

Phaedon cochleariae = Phaedon cochleariae larvae test (sprayed cabbage leaves)
Text: as §1, §2, §3, §4
Cabbage leaves (Brassica oleracea) are treated by spraying with the active compound preparation of the desired concentration and are populated with larvae of the mustard beetle (Phaedon cochleariae) while the leaves are still moist.
After the desired period of time, the kill in % is determined. 100% means that all beetle larvae have been killed; 0% means that none of the beetle larvae have been killed. The kill rates determined are entered into Colby's formula.

Tetranychus urticae = experiment: Tetranychus test (OP-resistant/spray treatment)
Text: as §1, §2, §3
To produce a suitable preparation of active compound, 1 part by weight of active compound is mixed with the stated amounts of solvents and emulsifier, and the concentrate is diluted with emulsifier-containing water to the desired concentration. […]
After the desired period of time, the activity in % is determined. […]

CCC(C)(C)C(=O)OC1=C(c2ccc(Cl)cc2Cl)C(=O)OC12CCCCC2 [spirodiclofen]
Kill in % after 6d (Spodoptera frugiperda; 0.8 g/ha): 0%

spinetoram
Kill in % after 6d (Myzus persicae; 0.16 g/ha): 0%
Kill in % after 6d (Myzus persicae; 20 g/ha): 0%
Kill in % after 6d (Phaedon cochleariae; 0.8 g/ha): 50%
Kill in % after 2d (Phaedon cochleariae; 4 g/ha): 50%
Kill in % after 6d (Spodoptera frugiperda; 0.16 g/ha): 83%
Kill in % after 2d (Tetranychus urticae; 0.8 g/ha): 0%

Cc1cc(C)c(C2=C(OC(=O)CC(C)(C)C)C3(CCCC3)OC2=O)c(C)c1 [spiromesifen]
Kill in % after 6d (Myzus persicae; 100 g/ha): 50%
Kill in % after 6d (Phaedon cochleariae; 4 g/ha): 0%
Kill in % after 6d (Spodoptera frugiperda; 0.8 g/ha): 0%
Kill in % after 2d (Tetranychus urticae; 4 g/ha): 0%

CCOC(=O)OC1=C(c2cc(C)ccc2C)C(=O)N[C@]12CC[C@@H](OC)CC2 [spirotetramat]
Kill in % after 6d (Myzus persicae; 0.8 g/ha): 0%
Kill in % after 2d (Phaedon cochleariae; 20 g/ha): 0%
Kill in % after 6d (Spodoptera frugiperda; 0.8 g/ha): 0%
